Biological target: CES2 (Homo sapiens, UniProt O00748)
Experiment: Enzyme Inhibition Assay
Settings: pH 7.4; 25 °C
Description: CE inhibition was determined using a spectrophotometric multiwell plate assay with o-NPA as a substrate. The rate of change in absorbance at 420 nm was measured at 15 sec intervals for 5 min and compared to wells containing no inhibitor. […] Further analysis of inhibitors was performed in condition that inhibitor concentrations ranged from 1 pM to 100 uM. Data were fitted to the equation. Examination of curve fits to identify the best model for enzyme inhibition. Ki values were then calculated from the equation predicted by Prism to be the best fit for the experimental data.

CES2, sequence (O00748 whole entry, looked up): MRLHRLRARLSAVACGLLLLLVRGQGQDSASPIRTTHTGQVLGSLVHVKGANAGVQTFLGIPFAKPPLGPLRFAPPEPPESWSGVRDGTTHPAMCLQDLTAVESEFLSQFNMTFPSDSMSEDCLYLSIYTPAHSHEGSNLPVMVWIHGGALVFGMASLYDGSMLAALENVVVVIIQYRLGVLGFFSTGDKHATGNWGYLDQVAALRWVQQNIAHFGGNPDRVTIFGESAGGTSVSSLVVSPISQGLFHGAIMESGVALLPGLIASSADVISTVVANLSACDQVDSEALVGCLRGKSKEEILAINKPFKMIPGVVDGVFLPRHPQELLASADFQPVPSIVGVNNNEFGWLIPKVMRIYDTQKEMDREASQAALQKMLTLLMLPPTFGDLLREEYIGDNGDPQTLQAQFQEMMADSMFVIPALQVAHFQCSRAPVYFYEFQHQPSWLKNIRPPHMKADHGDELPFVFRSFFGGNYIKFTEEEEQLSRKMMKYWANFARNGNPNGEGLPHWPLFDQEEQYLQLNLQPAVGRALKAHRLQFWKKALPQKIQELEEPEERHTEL

| SMILES | Ki [µM] |
| --- | --- |
| COc1ccccc1C(=O)C(=O)c1ccccc1OC [1,2-bis(2-methoxyphenyl)ethane-1,2-dione] | > 100 |
| O=C1C(=O)c2cccc3c2N(CCC3)C1=O [1-azatricyclo[7.3.1.0^{5,13}]trideca-5,7,9(13)-triene-2,3,4-trione] | > 100 |
| O=C1C(=O)c2cccnc2-c2ncccc21 [5,6-dihydro-1=10-phenantroline-5,6-dione] | > 100 |

From BindingDB's records for doi:10.1021/jm0706867 (St. Jude Research Hospital, 2007)
